Assay results taken from ChEMBL document CHEMBL3108669, “Modulation of reactive oxygen species photogeneration of bacteriopheophorbide a derivatives by exocyclic E-ring opening and charge modifications” (J Med Chem, 2014).

How the values were obtained:
Assay type in all cases: physicochemical
[1] = Induction of ROS generation in RPMI-1640 cell culture media/DMSO/cremophor solution by SOSG-based fluorescence assay
[2] = Induction of ROS generation in MeOH/PBS solution by SOSG-based fluorescence assay; conditions: buffer
[3] = Induction of ROS generation in water/cremophor/DMF solution by AUR-based fluorescence assay; conditions: buffer
[4] = Induction of ROS generation in MeOH/PBS solution by AUR-based fluorescence assay; conditions: buffer
[5] = Induction of ROS generation in water/cremophor/DMF solution by SOSG-based fluorescence assay; conditions: buffer
[6] = Induction of ROS generation in RPMI-1640 cell culture media/DMSO/cremophor solution by AUR-based fluorescence assay

Measured: Activity

CC[C@H]1c2cc3[nH]c4c(c3C)C(=O)[C@H](C(=O)OC)c4c3nc(cc4[nH]c(cc(n2)[C@@H]1C)c(C(C)=O)c4C)[C@@H](C)[C@@H]3CCC(=O)NCCS(=O)(=O)O
Active: all assays above

CC[C@H]1c2cc3[nH]c(c(CC(=O)OC)c4nc(cc5[nH]c(cc(n2)[C@@H]1C)c(C(C)=O)c5C)[C@@H](C)[C@@H]4CCC(=O)NCCS(=O)(=O)O)c(C(=O)NCCS(=O)(=O)O)c3C
Active: all assays above

CC[C@H]1c2cc3[nH]c4c(c3C)C(=O)[C@H](C(=O)OC)c4c3nc(cc4[nH]c(cc(n2)[C@@H]1C)c(C(C)=O)c4C)[C@@H](C)[C@@H]3CCC(=O)OCC[N+](C)(C)C
Active: all assays above

CC[C@H]1c2cc3[nH]c(c(CC(=O)OC)c4nc(cc5[nH]c(cc(n2)[C@@H]1C)c(C(C)=O)c5C)[C@@H](C)[C@@H]4CCC(=O)OCC[N+](C)(C)C)c(C(=O)NCCS(=O)(=O)O)c3C
Active: all assays above

CC[C@H]1c2cc3[nH]c4c(c3C)C(=O)[C@H](C(=O)OC)c4c3nc(cc4[nH]c(cc(n2)[C@@H]1C)c(C(C)=O)c4C)[C@@H](C)[C@@H]3CCC(=O)OC
Active: all assays above

CC[C@H]1c2cc3[nH]c(c(CC(=O)OC)c4nc(cc5[nH]c(cc(n2)[C@@H]1C)c(C(C)=O)c5C)[C@@H](C)[C@@H]4CCC(=O)OC)c(C(=O)NCCS(=O)(=O)O)c3C
Active: all assays above

CC[C@H]1c2cc3[nH]c4c(c3C)C(=O)[C@H](C(=O)OC)c4c3nc(cc4[nH]c(cc(n2)[C@@H]1C)c(C(C)=O)c4C)[C@@H](C)[C@@H]3CCC(=O)O
Active: all assays above

CC[C@H]1c2cc3[nH]c(c(CC(=O)OC)c4nc(cc5[nH]c(cc(n2)[C@@H]1C)c(C(C)=O)c5C)[C@@H](C)[C@@H]4CCC(=O)O)c(C(=O)NCCS(=O)(=O)O)c3C
Active: all assays above
